In PMC8407143 (Bioorganic & medicinal chemistry letters, 2021):
Entries after “also recorded” stand apart in the source; their conditions may differ.

Key:
[1] = molecular target: B. pseudomallei IspF (BpIspF) (Burkholderia pseudomallei, UniProt Q3JRA0); assay: biochemical; assay type: binding; conditions: for Kd: KD,app
[2] = molecular target: BpIspF (Burkholderia pseudomallei, UniProt Q3JRA0); assay type: binding
[3] = molecular target: T1, E. coli IspF (Escherichia coli, UniProt P62617); assay type: binding; conditions: pH 7.4
T1 sequence (P62617 1-159): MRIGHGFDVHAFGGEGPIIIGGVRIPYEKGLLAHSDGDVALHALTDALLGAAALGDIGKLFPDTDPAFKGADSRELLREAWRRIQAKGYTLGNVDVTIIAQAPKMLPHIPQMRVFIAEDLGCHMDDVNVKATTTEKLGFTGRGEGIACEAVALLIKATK

[4] = molecular target: T1, E. coli IspF; conditions: cited from earlier work
[5] = molecular target: T1, E. coli IspF; conditions: cited from earlier work; remark: listed apart in the source

BpIspF, sequence (Q3JRA0 whole entry, looked up): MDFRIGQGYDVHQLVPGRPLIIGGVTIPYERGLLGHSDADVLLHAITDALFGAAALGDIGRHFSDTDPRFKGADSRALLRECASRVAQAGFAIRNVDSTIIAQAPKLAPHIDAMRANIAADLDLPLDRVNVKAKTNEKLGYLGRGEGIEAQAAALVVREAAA
B. pseudomallei IspF (BpIspF), sequence (Q3JRA0 whole entry, looked up): as above

SMILES: N[C@@H](Cc1c[nH]c2ccccc12)C(=O)O [L-tryptophan, reference compound]
- Kd [1]: > 1000 µM
- binding (in words) ([1]; pH 7.4): did not show appreciable binding

SMILES: N[C@H](Cc1c[nH]c2ccccc12)C(=O)NO [D-tryptophan hydroxamate]
- change in affinity relative to L-tryptophan hydroxamate (3) [1]: less than a twofold drop in affinity; also recorded: less than two-fold weaker
- N (stoichiometry) ([1]; pH 7.4): 0.7

SMILES: CC(C)=CCC/C(C)=C/COP(=O)(O)OP(=O)(O)O [geranyl diphosphate (GPP), geranyl diphosphate, reference compound]
- interaction with BpIspF by STD NMR (in words) [2]: did not show significant interaction

SMILES: N[C@H](Cc1c[nH]c2ccccc12)C(=O)O [D-tryptophan, reference compound]
- Kd [1]: > 1000 µM
- binding (in words) ([1]; pH 7.4): undetectable binding; also recorded: did not show appreciable binding

SMILES: N[C@@H](Cc1c[nH]c2ccccc12)C(=O)NO [L-tryptophan hydroxamate (3), L-tryptophan hydroxamate]
- N (stoichiometry) [3]: 1.2 ± 0.3
- Kd [4]: ~2 µM
- Relative Percent Saturation Transfer, proton A [2]: 100%
- Relative Percent Saturation Transfer, proton B [2]: 60–65%
- Relative Percent Saturation Transfer, proton C [2]: 80–85%
- Relative Percent Saturation Transfer, proton D [2]: 75–80%
- Relative Percent Saturation Transfer, proton E [2]: 80–85%
- Relative Percent Saturation Transfer, proton F [2]: 25–30%
- Relative Percent Saturation Transfer, proton G [2]: 50–55%
- binding at pH 6.0 compared to pH 7.4 (fold weaker) [1]: approximately 25 fold
- N (stoichiometry) ([1]; pH 7.4): 1.5 ± 0.2
- N (stoichiometry) ([1]; pH 8): 1.4 ± 0.4

SMILES: CC(C)=CCC/C(C)=C/CC/C(C)=C/CO[P@@](=O)(O)OP(=O)(O)O (stereo in doubt) [farnesyl diphosphate (FPP), farnesyl diphosphate]
- direct feedback inhibition of E. coli IspF (in words) [5]: did not observe direct feedback inhibition
